What was measured:
septoria leaf blotch [1] = assay: Test Example 10: control test of septoria leaf blotch of wheat, cup in greenhouse, inoculated, variety ARKEOS (Tables 15 to 19); assay type: in vivo, Septoria tritici
Description: (§1) Degree of Disease Occurrence=Σ(Index×Number of Leaves of Index)/(4×Number of Investigated Leaves)×100 (1)
Seed of wheat (variety: ARKEOS) was used, and 100 ml of suspension waters each containing the compound shown in Table 15 at an amount shown in Table 15 (synthesis was performed in accordance with a known method, a liquid dissolved in a small amount of DMSO or formulated 10% wettable powder was used) were prepared. Seed having a mass of 1 kg was mixed into the suspension water with a rate shown in Examples of Table 15, and air-dried, and then, 5 seeds were sown in a plastic cup having a diameter of 6 cm containing mixed soil of river sand and horticultural soil and managed in a greenhouse. In Comparative Examples, 20 ml of suspension water of an active ingredient, which had been adjusted to have a concentration shown in Table 15 to 19, was sprayed in a frame of 45 cm×45 cm in which a pot of wheat seedlings was placed (corresponding to 1000 L/ha) 14 days after seeding. On day 14 after seeding, a spore suspension in which conidiospores of septoria leaf blotch are suspended was sprayed and inoculated on leaves of wheat seedlings (after the sprayed liquid was dried in the case of Comparative Examples), a lesion area ratio of septoria leaf blotch in a second leaf was investigated approximately 35 days after seeding according to the criteria in Table 1, and the degree of disease occurrence was calculated by the above calculation formula (1).

powdery mildew [2] = assay: Test Example 9: control test of wheat powdery mildew, cup in greenhouse, inoculated, Norin No. 61 (Tables 10 to 14); assay type: in vivo, Blumeria graminis; design: key to Degree of Disease Occurrence: Σ(index×leaves)/(4×leaves investigated)×100; 0 = no disease, 100 = max
Description: as §1
Seed of wheat (variety: Norin No. 61) was used, and 100 ml of suspension waters each containing the compound shown in Table 10 at an amount shown in […] (synthesis was performed in accordance with a known method, a solution dissolved in DMSO or formulated 10% wettable powder was used) were prepared. The seed having a mass of 1 kg of wheat was mixed into the suspension water with a chemical treated amount shown in Table 10, and air-dried, and then, 5 seeds were sown in a plastic cup having a diameter of 6 cm containing river sand and managed in a greenhouse. In Comparative Examples, 20 ml of the suspension water of an active ingredient, which had been adjusted to have a concentration shown in Table 10, was sprayed in a frame of 45 cm×45 cm in which a pot of wheat seedlings was placed (corresponding to 1000 L/ha) 14 days after seeding. On day 14 after seeding, conidiospores of powdery mildew were sifted over leaves of wheat seedlings and inoculated onto the leaves (after the sprayed liquid was dried in the case of Comparative Examples), a lesion area ratio of powdery mildew in a first leaf was investigated 21 days after seeding according to the criteria in Table 1, and the degree of disease occurrence was calculated by the above calculation formula (1).

[3] = test system: wheat (variety: Norin No. 61); assay: Test Example 4: emergence rate of wheat seed; assay type: in vivo
Description: (§2) Seed having a mass of 1 kg of wheat (variety: Norin No. 61) was mixed into 100 ml of suspension water containing 0.5 g of the above compound (6) or compound (3) (synthesis was performed in accordance with a known method, formulated 10% wettable powder was used) and air-dried, and then, 12 seeds were sown in a plastic cup having a diameter of 6 cm containing river sand and managed in a greenhouse. The number of emerged seeds was investigated nine days after seeding, and an emergence rate was calculated (Examples 10 and 11). In Comparative Example 11 and Comparative Example 12, 20 ml of suspension water of an active ingredient, which had been adjusted to have a concentration shown in Table 5, was sprayed in a frame of 45 cm×45 cm in which a pot of wheat seedlings was placed (corresponding to 1000 L/ha) 15 days after seeding. On day 15 after seeding, conidiospores of powdery mildew were sifted over leaves of wheat seedlings and inoculated onto the leaves (after the sprayed liquid was dried in the case of Comparative Examples), a lesion area ratio of powdery mildew in a first leaf was investigated 22 days after seeding according to the criteria in Table 1, and the degree of disease occurrence was calculated by the above calculation formula (1).

powdery mildew [4] = assay: Test Example 4: control test of wheat powdery mildew, cup in greenhouse, inoculated; assay type: in vivo, Blumeria graminis; details: for Degree of Disease Occurrence: 22 days after seeding
Description: as §1, §2

septoria leaf blotch [5] = assay: Test Example 8: control test of septoria leaf blotch of wheat, cup in greenhouse, inoculated, wheat variety Apache; assay type: in vivo, Septoria tritici; design: key to Degree of Disease Occurrence: Σ(index×leaves of index)/(4×investigated leaves)×100; 0–100 scale; details: for Degree of Disease Occurrence: 31 days after seeding
Description: as §1
Seed having a mass of 1 kg of wheat (variety: Apache) was mixed into 100 ml of suspension water containing from 0.5 g or 5 g of the 3,4-dichloroisothiazole derivative of the compound (6) or (3) (synthesis was performed in accordance with a known method, formulated 10% wettable powder was used) and air-dried, and then, 12 seeds were sown in a plastic cup having a diameter of 6 cm containing river sand and managed in a greenhouse. The number of emerged seeds was investigated 12 days after seeding, and an emergence rate was calculated. In Comparative Examples 19 to 22, 20 ml of suspension water of an active ingredient, which had been adjusted to have a concentration shown in Table 9, was sprayed in a frame of 45 cm×45 cm in which a pot of wheat seedlings was placed (corresponding to 1000 L/ha) 12 days after seeding. A spore suspension in which conidiospores of septoria leaf blotch are suspended were sprayed and inoculated on leaves of wheat seedlings 12 days after seeding (after the sprayed liquid was dried in the case of Comparative Examples), a lesion area ratio of septoria leaf blotch in a second leaf was investigated 31 days after seeding according to the criteria in Table 1, and the degree of disease occurrence was calculated by the above calculation formula (1).

[6] = Table 16, Foliage Treatment, spray 500 ppm suspension water (corresponding to 500 g/ha) 14 days after seeding, untreated 57.1
[7] = Table 16, Foliage Treatment, spray 500 ppm suspension water (corresponding to 500 g/ha) 14 days after seeding, untreated 93.3
[8] = Table 16, Seed Treatment, 5 g/Seed 1 kg (corresponding to 500 g/ha), untreated 57.1
[9] = Table 16, Seed Treatment, 5 g/Seed 1 kg (corresponding to 500 g/ha), untreated 93.3
[10] = Table 11 run (different day), Foliage Treatment, spray 5 ppm (5 g/ha)
[11] = Table 11 run (different day), Foliage Treatment, spray 50 ppm (50 g/ha)
[12] = Table 11 run (different day), Seed Treatment 0.05 g/Seed 1 kg (5 g/ha)
[13] = Table 11 run (different day), Seed Treatment 0.5 g/Seed 1 kg (50 g/ha)
[14] = Table 12 run (different day), Foliage Treatment, spray 50 ppm (50 g/ha)
[15] = Table 12 run (different day), Seed Treatment 0.5 g/Seed 1 kg (50 g/ha)
[16] = Table 15, Foliage Treatment, spray 50 ppm (50 g/ha) day 14, second leaf, approximately 35 days after seeding
[17] = Table 15, Foliage Treatment, spray 500 ppm (500 g/ha) day 14, second leaf, approximately 35 days after seeding
[18] = Table 15, Seed Treatment 0.5 g/Seed 1 kg (50 g/ha), second leaf, approximately 35 days after seeding
[19] = Table 15, Seed Treatment 5 g/Seed 1 kg (500 g/ha), second leaf, approximately 35 days after seeding
[20] = Table 16, Foliage Treatment, spray 10 ppm suspension water (corresponding to 10 g/ha) 14 days after seeding, untreated 57.1
[21] = Table 16, Foliage Treatment, spray 10 ppm suspension water (corresponding to 10 g/ha) 14 days after seeding, untreated 93.3
[22] = Table 16, Seed Treatment, 0.1 g/Seed 1 kg (corresponding to 10 g/ha), untreated 57.1
[23] = Table 16, Seed Treatment, 0.1 g/Seed 1 kg (corresponding to 10 g/ha), untreated 93.3
[24] = Foliage Spray group, 50 ppm (50 g/ha) 15 days after seeding, emergence counted nine days after seeding
[25] = Seed Treatment 0.5 g/Seed 1 kg (50 g/ha), nine days after seeding
[26] = Foliage Spray 50 ppm suspension water (50 g/ha) day 15, first leaf
[27] = Seed Treatment 0.5 g/Seed 1 kg (50 g/ha), inoculated day 15, first leaf
[28] = Foliage Treatment, spray 50 ppm suspension water (50 g/ha) day 12, second leaf
[29] = Foliage Treatment, spray 500 ppm suspension water (500 g/ha) day 12, second leaf
[30] = Seed Treatment 0.5 g/Seed 1 kg, inoculated day 12, second leaf
[31] = Seed Treatment 5 g/Seed 1 kg (500 g/ha), inoculated day 12, second leaf
[32] = Table 10 run, Foliage Treatment, spray 5 ppm (5 g/ha) day 14, first leaf, 21 days after seeding
[33] = Table 10 run, Foliage Treatment, spray 50 ppm (50 g/ha) day 14, first leaf, 21 days after seeding
[34] = Table 10 run, Seed Treatment 0.05 g/Seed 1 kg (5 g/ha), first leaf, 21 days after seeding
[35] = Table 10 run, Seed Treatment 0.5 g/Seed 1 kg (50 g/ha), first leaf, 21 days after seeding

Row | Structure (SMILES) | Degree of Disease Occurrence (septoria leaf blotch [1]; [6]) | Disease Leaf Rate (%) (septoria leaf blotch [1]; [7]) | Degree of Disease Occurrence (septoria leaf blotch [1]; [8]) | Disease Leaf Rate (%) (septoria leaf blotch [1]; [9]) | Degree of Disease Occurrence (septoria leaf blotch [1]; [16]) | Disease Leaf Rate (%) (septoria leaf blotch [1]; [16]) | Degree of Disease Occurrence (septoria leaf blotch [1]; [17]) | Disease Leaf Rate (%) (septoria leaf blotch [1]; [17]) | Degree of Disease Occurrence (septoria leaf blotch [1]; [18]) | Disease Leaf Rate (%) (septoria leaf blotch [1]; [18]) | Degree of Disease Occurrence (septoria leaf blotch [1]; [19]) | Disease Leaf Rate (%) (septoria leaf blotch [1]; [19]) | Degree of Disease Occurrence (septoria leaf blotch [1]; [20]) | Disease Leaf Rate (%) (septoria leaf blotch [1]; [21]) | Degree of Disease Occurrence (septoria leaf blotch [1]; [22]) | Disease Leaf Rate (%) (septoria leaf blotch [1]; [23]) | Emergence Rate (%) [3, 24] [%] | Emergence Rate (%) [3, 25] [%] | Degree of Disease Occurrence (powdery mildew [4]; [26]) | Degree of Disease Occurrence (powdery mildew [4]; [27]) | also measured
1 | O=S1(=O)N=C(OCc2snc(Cl)c2Cl)c2ccccc21 [Compound (1), Dichlobentiazox] | 71.9 | 100.0 | 45.7 | 95.8 |  |  |  |  |  |  |  |  |  |  |  |  |  |  |  |  | Degree of Disease Occurrence (powdery mildew [2]; [10]): 95.3; Disease Leaf Rate (%) (powdery mildew [2]; [10]): 100%; Degree of Disease Occurrence (powdery mildew [2]; [11]): 89.1; Disease Leaf Rate (%) (powdery mildew [2]; [11]): 100%; Degree of Disease Occurrence (powdery mildew [2]; [12]): 56.4; Disease Leaf Rate (%) (powdery mildew [2]; [12]): 93.8%; Degree of Disease Occurrence (powdery mildew [2]; [13]): 22.7; Disease Leaf Rate (%) (powdery mildew [2]; [13]): 71.9%; Degree of Disease Occurrence (powdery mildew [2]; [14]): 21.7; Disease Leaf Rate (%) (powdery mildew [2]; [14]): 46.7%; Degree of Disease Occurrence (powdery mildew [2]; [15]): 0.0; Disease Leaf Rate (%) (powdery mildew [2]; [15]): 0.0%
2 | OCc1snc(Cl)c1Cl [Compound (3)] | 77.4 | 100.0 | 40.4 | 85.7 | 29.3 | 97.0 | 37.5 | 91.7 | 22.2 | 77.8 | 8.2 | 32.8 | 62.5 | 100.0 | 40.6 | 96.9 | 97.2 | 97.2 | 62.1 | 17.0 | disease occurrence of powdery mildew, seed treatment compared with spraying on foliage during a growing period (powdery mildew [4]): suppressed lower; Degree of Disease Occurrence (septoria leaf blotch [5]; [28]): 29.3; Degree of Disease Occurrence (septoria leaf blotch [5]; [29]): 37.5; Degree of Disease Occurrence (septoria leaf blotch [5]; [30]): 22.2; Degree of Disease Occurrence (septoria leaf blotch [5]; [31]): 8.2; disease occurrence of septoria leaf blotch, seed treatment compared with spraying on foliage during a growing period (septoria leaf blotch [5]): suppressed lower; Degree of Disease Occurrence (powdery mildew [2]; [32]): 63.5; Disease Leaf Rate (%) (powdery mildew [2]; [32]): 100.0%; Degree of Disease Occurrence (powdery mildew [2]; [33]): 56.3; Disease Leaf Rate (%) (powdery mildew [2]; [33]): 100.0%; Degree of Disease Occurrence (powdery mildew [2]; [34]): 45.2; Disease Leaf Rate (%) (powdery mildew [2]; [34]): 100.0%; Degree of Disease Occurrence (powdery mildew [2]; [35]): 14.8; Disease Leaf Rate (%) (powdery mildew [2]; [35]): 59.4%
3 | O=C(O)c1snc(Cl)c1Cl [Compound (6)] | 86.2 | 95.2 | 41.3 | 95.0 | 29.5 | 88.9 | 48.5 | 100.0 | 16.1 | 58.8 | 4.2 | 16.9 | 53.3 | 100.0 | 34.7 | 84.4 | 100 | 97.2 | 22.2 | 16.3 | disease occurrence of powdery mildew, seed treatment compared with spraying on foliage during a growing period (powdery mildew [4]): suppressed lower; Degree of Disease Occurrence (septoria leaf blotch [5]; [28]): 29.5; Degree of Disease Occurrence (septoria leaf blotch [5]; [29]): 48.5; Degree of Disease Occurrence (septoria leaf blotch [5]; [30]): 16.1; Degree of Disease Occurrence (septoria leaf blotch [5]; [31]): 4.2; disease occurrence of septoria leaf blotch, seed treatment compared with spraying on foliage during a growing period (septoria leaf blotch [5]): suppressed lower; Degree of Disease Occurrence (powdery mildew [2]; [32]): 56.3; Disease Leaf Rate (%) (powdery mildew [2]; [32]): 100.0%; Degree of Disease Occurrence (powdery mildew [2]; [33]): 40.6; Disease Leaf Rate (%) (powdery mildew [2]; [33]): 87.5%; Degree of Disease Occurrence (powdery mildew [2]; [34]): 48.5; Disease Leaf Rate (%) (powdery mildew [2]; [34]): 93.8%; Degree of Disease Occurrence (powdery mildew [2]; [35]): 28.1; Disease Leaf Rate (%) (powdery mildew [2]; [35]): 87.1%

— patent US20220000117A1, “METHOD FOR CONTROLLING DISEASES IN SMALL GRAIN CEREALS, SEED OF SMALL GRAIN CEREALS, AND METHOD FOR SUPPRESSING LODGING DAMAGE IN SMALL GRAIN CEREALS” (KUMIAI CHEMICAL INDUSTRY CO., LTD., priority 2019, published 2022)
